Laboratory results as given in patent US8138191B2, “Inhibitor compounds and cancer treatment methods” (Critical Outcome Technologies Inc., priority 2007, dated 2012).

Tests used:
[1] = tested on: PI3K activity in SHP77 cells; test: PI3-K activity (PIP3 detection, Echelon kit), SHP77; assay type: cell-based, human; conditions: SHP77, 250 nM COTI-2 alone, 20 minutes
Excerpt: As a negative control, an equivalent volume of DMSO was utilized. […] To measure PI3-K activity, a commercial kit was purchased from Echelon. Following the procedures recommended by the manufacturer, membrane lipids were extracted in several steps and the resulting PIP3 was immobilized to nitrocellulose and measured by its interaction with a PH-domain containing protein and HRP-conjugated antibody supplied with the kit. As an additional control in these experiments, the specific PI3-K inhibitor, LY294002 was used to inhibit PI3-K and thus stop PIP3 production.

[2] = tested on: A549, H460, DMS114 and SHP77 cells; test: Western blot of total mTOR, mTOR phospho-Ser2448/Ser2481 and Akt phospho-Thr308; assay type: cell-based, human; conditions: 4 h
in vitro = in vitro ADME
Experimental: (§1) Commercially obtained (Rockland Immunochemicals Inc.), non-sterile, species-specific plasma (human, monkey, and dog) with sodium anticoagulant added was utilized for this study. […] Dialysis membrane strips (12-14K MWCO) were presoaked in water and ethanol, rinsed and then kept in buffer until use. Following assembly of the 96-well dialysis apparatus, […] membrane strips placed between the dialysis and sample compartments. The dialysate compartment was loaded with 0.15 ml phosphate buffer was added to the dialysis side of each well. Plasma (unfiltered) was spiked with 10 μM COTI-2 (1% DMSO) and 0.15 ml added to the sample side of each well. After loading, samples are covered and incubated at 37° C. until equilibrium was reached (at least 8 hours). Equal volumes of sample were removed from the buffer and plasma sides of each well, diluted with acetonitrile/buffer and centrifuged. Also at this time an additional sample was prepared (in duplicate) by spiking COTI-2 in plasma at 10 μM, followed by sampling and diluting in acetonitrile/buffer in the same manner as the incubated plasma sample. This calibration sample served as the basis of a recovery determination. The supernatants were analyzed by HPLC-MS/MS and the peak response of COTI-2 in both dialysis and sample compartments, and in the calibration sample, were subsequently determined in two independent replicates. […] The HPLC conditions consist of a binary LC pump with autosampler, a C18 column (2×20 mm), and gradient elution. The percent bound to plasma/serum proteins and percent recovery of the compounds were calculated. The recovery determination serves as an indicator as to the reliability of the calculated protein binding value.

dog plasma = test: in vitro; assay type: in vitro ADME; conditions: mixed breeds, 10 µM
Experimental: as §1

human plasma = test: in vitro; assay type: in vitro ADME; conditions: 10 µM
Experimental: as §1

P-glycoprotein = biological target: T1, P-glycoprotein (Homo sapiens, UniProt P08183); test: P-glycoprotein inhibition (TC7, 3H-digoxin substrate); assay type: in vitro ADME
T1 construct: endogenous in cells; host or cells: TC7 cells

[3] = Metabolic Stability (liver microsomes, human); assay type: in vitro ADME
Experimental: Metabolic stability was determined in human (mixed gender and pool of 50) monkey (male Cynomolgus, pool of 6 or more), dog male, beagle, pool of 4 or more) and rat (male Sprague-Dawley, pool of 100 or more) liver microsomes. […] Four reference substrates (1 μM) were tested simultaneously with COTI-2. […] Peak areas corresponding to COTI-2 were recorded by HPLC-MS/MS. Metabolic stability, expressed as percent of COTI-2 remaining, was calculated by comparing the peak area of COTI-2 at 60 min to time zero.

[4] = In vivo pharmacokinetics in rats, IV dosing; conditions: IV
Excerpt: Pharmacokinetic studies in animal models provide valuable information that enables prediction of metabolism in humans. There are a large variety of animal models that allow for the pharmacokinetic evaluation of compounds by providing information on serum, plasma, and tissue levels. […] As a result, it is important to keep this phenomenon in mind during extrapolations from animal to human metabolism. An initial pharmacokinetic assessment of COTI-2, administered both intravenously and orally, in its parent formulation and as both an oxalate and tartrate salt were evaluated in rats.
A single oral or IV dose of the COTI-2 free-base or the aforementioned salt forms was administered to groups of male and female rats and blood samples collected and processed at several time-points post-treatment.

CYP1A = CYP1A (Homo sapiens, UniProt P05177); test: in vitro; conditions: both
CYP2C9 = CYP2C9 (Homo sapiens, UniProt P11712); test: in vitro; conditions: both
CYP3A = CYP3A (Homo sapiens, UniProt P08684); test: in vitro; conditions: both
CYP2E1 = CYP2E1 (Homo sapiens, UniProt P05181); test: CYP2E1 Inhibition (HLM, chlorzoxanzone substrate)
DMS114 cells = test: Cell cycle analysis of DMS114 cells by FACS; assay type: cell-based, human; conditions: DMS114, 1.5 μM, 24 h
Experimental: Approximately 2×10^5 DMS114 cells were incubated for 24 h with the indicated concentrations of COTI-219. Following incubation with COTI-219 the cells were washed and re-suspended in 0.5 ml of BP Pharmingen Propidium Iodide staining solution (Cat. No. 556463) for FACS analysis in order to determine the changes in the cell cycle.

T1 sequence (P08183 whole entry): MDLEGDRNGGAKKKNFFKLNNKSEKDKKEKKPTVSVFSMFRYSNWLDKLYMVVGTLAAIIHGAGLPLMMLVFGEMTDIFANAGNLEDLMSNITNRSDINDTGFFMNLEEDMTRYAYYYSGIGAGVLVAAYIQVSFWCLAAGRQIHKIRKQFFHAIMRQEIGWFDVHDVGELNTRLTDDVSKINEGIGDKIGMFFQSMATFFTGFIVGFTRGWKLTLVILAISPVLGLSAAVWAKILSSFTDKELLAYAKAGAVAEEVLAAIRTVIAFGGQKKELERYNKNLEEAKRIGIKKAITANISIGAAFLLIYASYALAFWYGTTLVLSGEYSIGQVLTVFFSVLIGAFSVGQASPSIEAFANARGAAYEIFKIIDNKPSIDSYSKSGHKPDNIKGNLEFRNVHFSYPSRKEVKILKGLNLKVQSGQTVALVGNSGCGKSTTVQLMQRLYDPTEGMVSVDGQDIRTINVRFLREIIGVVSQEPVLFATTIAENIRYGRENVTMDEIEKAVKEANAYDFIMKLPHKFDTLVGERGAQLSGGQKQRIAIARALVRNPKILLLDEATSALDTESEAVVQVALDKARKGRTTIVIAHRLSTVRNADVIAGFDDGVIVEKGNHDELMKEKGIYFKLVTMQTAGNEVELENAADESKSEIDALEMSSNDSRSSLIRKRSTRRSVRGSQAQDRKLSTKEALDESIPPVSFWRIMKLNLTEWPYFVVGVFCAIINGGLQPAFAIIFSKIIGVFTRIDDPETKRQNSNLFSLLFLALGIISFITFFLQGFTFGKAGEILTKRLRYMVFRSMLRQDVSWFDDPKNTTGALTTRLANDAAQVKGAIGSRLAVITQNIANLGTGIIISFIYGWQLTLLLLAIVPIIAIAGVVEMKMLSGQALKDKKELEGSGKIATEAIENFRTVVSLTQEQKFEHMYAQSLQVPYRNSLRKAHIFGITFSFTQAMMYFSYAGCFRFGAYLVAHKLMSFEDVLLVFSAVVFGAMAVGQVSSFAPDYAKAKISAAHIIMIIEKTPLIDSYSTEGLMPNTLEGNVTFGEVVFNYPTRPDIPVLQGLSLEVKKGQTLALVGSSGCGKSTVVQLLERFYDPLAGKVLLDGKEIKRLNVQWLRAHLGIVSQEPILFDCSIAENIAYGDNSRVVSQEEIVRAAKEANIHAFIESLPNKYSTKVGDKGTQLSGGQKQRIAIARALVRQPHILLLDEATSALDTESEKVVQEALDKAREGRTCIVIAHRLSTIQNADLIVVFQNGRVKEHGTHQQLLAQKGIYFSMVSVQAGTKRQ
CYP1A, sequence (P05177 whole entry): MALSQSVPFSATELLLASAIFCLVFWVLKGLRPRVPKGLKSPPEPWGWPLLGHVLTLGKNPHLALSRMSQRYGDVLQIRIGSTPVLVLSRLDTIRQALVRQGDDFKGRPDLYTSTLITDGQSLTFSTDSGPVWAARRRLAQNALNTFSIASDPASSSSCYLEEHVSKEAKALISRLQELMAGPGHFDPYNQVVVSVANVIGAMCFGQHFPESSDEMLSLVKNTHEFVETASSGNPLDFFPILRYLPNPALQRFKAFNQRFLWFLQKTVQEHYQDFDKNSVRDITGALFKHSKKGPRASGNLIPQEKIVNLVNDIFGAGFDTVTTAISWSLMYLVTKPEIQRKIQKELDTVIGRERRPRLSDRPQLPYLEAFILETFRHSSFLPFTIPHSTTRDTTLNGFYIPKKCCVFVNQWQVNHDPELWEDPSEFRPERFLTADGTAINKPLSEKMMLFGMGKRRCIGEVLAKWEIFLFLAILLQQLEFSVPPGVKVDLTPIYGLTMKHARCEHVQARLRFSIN
CYP2E1, sequence (P05181 whole entry): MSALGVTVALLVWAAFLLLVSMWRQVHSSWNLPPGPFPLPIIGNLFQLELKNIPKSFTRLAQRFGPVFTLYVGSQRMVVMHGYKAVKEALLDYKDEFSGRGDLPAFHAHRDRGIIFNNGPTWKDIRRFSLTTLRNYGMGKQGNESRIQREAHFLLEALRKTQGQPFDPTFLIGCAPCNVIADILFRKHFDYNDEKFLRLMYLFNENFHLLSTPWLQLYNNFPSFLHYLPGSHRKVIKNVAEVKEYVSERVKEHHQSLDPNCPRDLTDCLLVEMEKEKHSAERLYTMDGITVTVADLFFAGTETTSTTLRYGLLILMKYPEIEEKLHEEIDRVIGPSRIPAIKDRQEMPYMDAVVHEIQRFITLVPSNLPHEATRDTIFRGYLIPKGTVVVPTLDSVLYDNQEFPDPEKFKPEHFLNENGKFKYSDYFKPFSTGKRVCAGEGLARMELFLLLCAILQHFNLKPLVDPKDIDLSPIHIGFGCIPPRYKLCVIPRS
CYP2C9, sequence (P11712 whole entry): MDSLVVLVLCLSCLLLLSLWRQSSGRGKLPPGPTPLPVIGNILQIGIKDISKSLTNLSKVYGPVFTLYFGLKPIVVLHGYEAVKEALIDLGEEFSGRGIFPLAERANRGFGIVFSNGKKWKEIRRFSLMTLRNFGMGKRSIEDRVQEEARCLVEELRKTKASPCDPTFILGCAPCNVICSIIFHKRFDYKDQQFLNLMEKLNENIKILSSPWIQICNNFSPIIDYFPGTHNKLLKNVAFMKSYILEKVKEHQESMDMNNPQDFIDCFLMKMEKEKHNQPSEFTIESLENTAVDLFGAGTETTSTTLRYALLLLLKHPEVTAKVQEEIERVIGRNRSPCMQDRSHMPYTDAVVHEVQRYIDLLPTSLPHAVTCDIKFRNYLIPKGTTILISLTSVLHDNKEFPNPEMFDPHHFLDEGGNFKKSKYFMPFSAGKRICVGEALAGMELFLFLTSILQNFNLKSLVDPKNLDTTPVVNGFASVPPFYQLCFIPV
CYP3A, sequence (P08684 2-503): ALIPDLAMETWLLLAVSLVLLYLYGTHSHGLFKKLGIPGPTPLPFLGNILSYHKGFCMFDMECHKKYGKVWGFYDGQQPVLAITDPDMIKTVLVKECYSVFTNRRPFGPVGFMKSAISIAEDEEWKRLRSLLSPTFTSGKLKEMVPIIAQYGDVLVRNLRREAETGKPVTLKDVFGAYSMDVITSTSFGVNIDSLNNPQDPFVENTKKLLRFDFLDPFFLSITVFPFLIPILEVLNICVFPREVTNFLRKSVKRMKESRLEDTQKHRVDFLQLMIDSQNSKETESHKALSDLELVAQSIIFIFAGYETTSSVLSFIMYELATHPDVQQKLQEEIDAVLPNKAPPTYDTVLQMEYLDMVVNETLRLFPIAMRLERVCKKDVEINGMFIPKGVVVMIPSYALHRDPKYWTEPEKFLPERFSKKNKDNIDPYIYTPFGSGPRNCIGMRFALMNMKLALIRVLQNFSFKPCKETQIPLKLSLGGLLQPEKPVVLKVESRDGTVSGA

S=C(N/N=C1/CCCc2cccnc21)N1CCN(c2ccccn2)CC1 [COTI-2]
PI3K activity (PIP3 levels) [1]: did not inhibit PI3K activity | PKB/Akt phospho-Thr308 levels ([2]; A549 cells): decreased | mTOR phospho-Ser2448 level ([2]; SHP77 cells): reduced | recovery at 10 µM (in vitro; human, % Recovery 1st): 6.7% | recovery at 10 µM (in vitro; human, % Recovery 2nd): 2.9% | recovery at 10 µM (in vitro; human, % Recovery Mean): 4.8% | recovery at 10 µM (in vitro; human, percent recovery): < 50% | recovery at 10 µM (in vitro; mixed breeds, dog, % Recovery 1st): 42.6% | recovery at 10 µM (in vitro; mixed breeds, dog, % Recovery 2nd): 32.8% | recovery at 10 µM (in vitro; mixed breeds, dog, % Recovery Mean): 37.7% | recovery at 10 µM (in vitro; mixed breeds, dog, percent recovery): < 50% | % Protein Bound 1st (dog plasma): 99.1% | % Protein Bound 2nd (dog plasma): 99.7% | % Protein Bound Mean (dog plasma): 99.4% | percent protein bound (dog plasma): > 99% | % Protein Bound 1st (human plasma): 99.8% | % Protein Bound 2nd (human plasma): >99.9% | % Protein Bound Mean (human plasma): 99.8% | percent protein bound (human plasma): > 99% | nH (P-glycoprotein; P-glycoprotein Inhibition, TC7, 3H-digoxin substrate): 0.5 | IC50 (P-glycoprotein; TC-7, radiolabelled digoxin, read-out: IC50, Pgp inhibition): 39 µM | percent remaining at 60 min ([3]; 1.0 μM): 31% | Mean Parent Remaining ([3]; 1.0E−06 M, 60 min, mean): 31% | clearance (CL) from plasma, fold higher than the oxalate formulation [4]: approximately 1.4 fold | clearance (CL) from plasma, fold higher than the tartrate formulation [4]: ~2.3 fold | inhibition at 15 min, 10 µM (CYP1A; human liver microsomes, pH 7.4, probe phenacetin (10 µM)): -2% | inhibition at 15 min, 10 µM (CYP1A; liver microsomes, pH 7.4, probe phenacetin): < 50% | inhibition at 15 min, 10 µM (CYP2C9; human liver microsomes, pH 7.4, probe diclofenac (10 µM)): 2% | inhibition at 15 min, 10 µM (CYP2C9; liver microsomes, pH 7.4, probe diclofenac): < 50% | inhibition at 15 min, 10 µM (CYP3A; human liver microsomes, pH 7.4, probe midazolam (10 µM)): 7% | inhibition at 15 min, 10 µM (CYP3A; liver microsomes, pH 7.4, probe midazolam): < 50% | percent inhibition (CYP2E1; CYP2E1, 10 μM): below 50% | % Inhibition of Control Values (CYP2E1; CYP2E1, HLM, chlorzoxazone substrate, 1.0E−05 M): −2%

CN1CCN(C(=S)NN=C2c3ncccc3-c3cccnc32)CC1 [COTI-219]
cell cycle effect (DMS114 cells): cell cycle arrest in G1
